From patent US12077503B2, “Substituted cyclic amides and their use as herbicides” (FMC CORPORATION, priority 2015, dated 2024)
Read-outs that look alike come from different tables or passages of the source.

Columns and labels:
Format in all cases: in vivo
[1] = tested on: lambsquarters (Chenopodium album); experiment: Test E preemergence; conditions: scale 0 to 100
Description: (§1) Seeds of plant species selected from corn (Zea mays), soybean (Glycine max), velvetleaf (Abutilon theophrasti), lambsquarters (Chenopodium album), poinsettia, wild (wild poinsettia, Euphorbia heterophylla), pigweed, palmer (palmer pigweed, Amaranthus palmeri), waterhemp (common waterhemp, Amaranthus rudis), surinam grass (Brachiaria decumbens), crabgrass, large (large crabgrass, Digitaria sangumnalis), crabgrass, Brazil (Brazilian crabgrass, Digitaria horizontalis), Panicum, fall (fall Panicum, Panicum dichotomiflorum), foxtail, giant (giant foxtail, Setaria faberii), foxtail, green (green foxtail, Setaria viridis), goosegrass (Eleusine indica), johnsongrass (Sorghum halepense), ragweed (common ragweed, Ambrosia elatior), barnyardgrass (Echinochloa crus-galli), sandbur (southern sandbur, Cenchrus echinatus), arrowleaf Sida (Sida rhombifolia), ryegrass, Italian (Italian ryegrass, Lolium multiflorum), dayflower, VA (Virginia dayflower, Commelina virginica), field bindweed (Convolvulus arvensis), morningglory (Ipomoea coccinea), nightshade (eastern black nightshade, Solanum ptycanthum), Kochia (Kochia scoparia), nutsedge, yellow (yellow nutsedge, Cyperus esculentus), horseweed (Conyza canadensis), and beggarticks (hairy beggarticks, Bidens pilosa), were planted into a silt loam soil and treated preemergence with test chemicals formulated in a non-phytotoxic solvent mixture which included a surfactant.
(§2) At the same time, plants selected from these crop and weed species were planted in pots containing Sunshine Redi-Earth planting medium comprising spaghnum peat moss, vermiculite, starter nutrients and dolomitic limestone and treated with postemergence applications of a test chemical formulated in the same manner. Plants ranged in height from 2 to 18 cm (1- to 4-leaf stage) for postemergence treatments. Treated plants and controls were maintained in a greenhouse for 14 to 21 d, after which time all species were compared to controls and visually evaluated. Plant response ratings, summarized in Table E, are based on a scale of 0 to 100 where 0 is no effect and 100 is complete control. A dash (-) response means no test result.

Kochia (Kochia scoparia) [2] = experiment: Test E preemergence; conditions: scale 0 to 100
Description: as §1, §2

[3] = tested on: johnsongrass (Sorghum halepense); experiment: Test E preemergence; conditions: scale 0 to 100
Description: as §1, §2

soybean (Glycine max) = experiment: Test E preemergence; conditions: scale 0 to 100
Description: as §1, §2

[4] = tested on: field bindweed (Convolvulus arvensis); experiment: Test E preemergence; conditions: scale 0 to 100
Description: as §1, §2

[5] = tested on: barnyardgrass (Echinochloa crus-galli); experiment: Test E preemergence; conditions: scale 0 to 100
Description: as §1, §2

[6] = tested on: sandbur (southern sandbur, Cenchrus echinatus); experiment: Test E preemergence; conditions: scale 0 to 100
Description: as §1, §2

[7] = tested on: waterhemp (common waterhemp, Amaranthus rudis); experiment: Test E preemergence; conditions: scale 0 to 100
Description: as §1, §2

[8] = tested on: giant foxtail (Setaria faberii); experiment: Test A preemergence; conditions: Setaria faberi, pre-emergence, 240 h; for pest or weed control at 125 g/ha: 125 g ai/ha, visual injury after approximately 10 d, 0 to 100 scale where 0 is no effect and 100 is complete control; for pest or weed control at 500 g/ha: 500 g ai/ha
Outline: (§3)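 Visual injury scores from 0, no effect, to 100, complete control, were assigned versus untreated controls roughly 10 d after treatment in the greenhouse. Test chemicals, formulated with surfactant in a non-phytotoxic solvent, were applied to planted seeds as a preemergence soil spray or postemergence to one- to two-leaf plants 2 to 10 cm tall, in loam–sand soil.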

Kochia (Kochia scoparia) [9] = experiment: Test A preemergence; conditions: Bassia scoparia, pre-emergence, 240 h; for pest or weed control at 125 g/ha: 125 g ai/ha, visual injury after approximately 10 d, 0 to 100 scale where 0 is no effect and 100 is complete control; for pest or weed control at 500 g/ha: 500 g ai/ha
Outline: as §3

[10] = tested on: barnyardgrass (Echinochloa crus-galli); experiment: Test A preemergence; conditions: Echinochloa crus-galli, pre-emergence, 240 h; for pest or weed control at 125 g/ha: 125 g ai/ha, visual injury after approximately 10 d, 0 to 100 scale where 0 is no effect and 100 is complete control; for pest or weed control at 500 g/ha: 500 g ai/ha
Outline: as §3

[11] = tested on: ragweed (common ragweed, Ambrosia elatior); experiment: Test A preemergence; conditions: Ambrosia artemisiifolia, pre-emergence, 240 h; for pest or weed control at 125 g/ha: 125 g ai/ha, visual injury after approximately 10 d, 0 to 100 scale where 0 is no effect and 100 is complete control; for pest or weed control at 500 g/ha: 500 g ai/ha
Outline: as §3

[12] = tested on: ryegrass, Italian (Italian ryegrass, Lolium multiflorum); experiment: Test A preemergence; conditions: Lolium multiflorum, pre-emergence, 240 h; for pest or weed control at 125 g/ha: 125 g ai/ha, visual injury after approximately 10 d, 0 to 100 scale where 0 is no effect and 100 is complete control; for pest or weed control at 500 g/ha: 500 g ai/ha
Outline: as §3

[13] = Preemergence, read-out: Plant response rating, Foxtail, Giant
[14] = Preemergence, read-out: Plant response rating, Kochia
[15] = Preemergence, read-out: Plant response rating, Barnyardgrass
[16] = Preemergence, read-out: Plant response rating, Ragweed
[17] = Preemergence, read-out: Plant response rating, Ryegrass, Italian

CN1C[C@H](c2ccc(C(F)(F)F)cc2)[C@@H](C(=O)Nc2cccc(F)c2F)C1=O [Compound 623, (3S,4S)—N-(2,3-difluorophenyl)-1-methyl-2-oxo-4-[4-(trifluoromethyl)phenyl]-3-pyrrolidinecarboxamide]
Plant response rating: Lambsquarters ([1]; 31 g ai/ha): 90
Plant response rating: Lambsquarters ([1]; 62 g ai/ha): 90
Plant response rating: Lambsquarters ([1]; 125 g ai/ha): 100
Plant response rating: Lambsquarters ([1]; 250 g ai/ha): 95
Plant response rating: Kochia (Kochia (Kochia scoparia) [2]; 31 g ai/ha): 90
Plant response rating: Kochia (Kochia (Kochia scoparia) [2]; 62 g ai/ha): 90
Plant response rating: Kochia (Kochia (Kochia scoparia) [2]; 125 g ai/ha): 95
Plant response rating: Kochia (Kochia (Kochia scoparia) [2]; 250 g ai/ha): 95
Plant response rating: Johnsongrass ([3]; 31 g ai/ha): 40
Plant response rating: Johnsongrass ([3]; 62 g ai/ha): 60
Plant response rating: Johnsongrass ([3]; 125 g ai/ha): 85
Plant response rating: Johnsongrass ([3]; 250 g ai/ha): 95
Plant response rating: Soybean (soybean (Glycine max); 31 g ai/ha): 0
Plant response rating: Soybean (soybean (Glycine max); 62 g ai/ha): 0
Plant response rating: Soybean (soybean (Glycine max); 125 g ai/ha): 0
Plant response rating: Soybean (soybean (Glycine max); 250 g ai/ha): 0
Plant response rating: Field Bindweed ([4]; 31 g ai/ha): 0
Plant response rating: Field Bindweed ([4]; 62 g ai/ha): 60
Plant response rating: Field Bindweed ([4]; 125 g ai/ha): 70
Plant response rating: Field Bindweed ([4]; 250 g ai/ha): 75
Plant response rating: Barnyardgrass ([5]; 31 g ai/ha): 95
Plant response rating: Barnyardgrass ([5]; 62 g ai/ha): 95
Plant response rating: Barnyardgrass ([5]; 125 g ai/ha): 98
Plant response rating: Barnyardgrass ([5]; 250 g ai/ha): 98
Plant response rating: Sandbur ([6]; 31 g ai/ha): 90
Plant response rating: Sandbur ([6]; 62 g ai/ha): 90
Plant response rating: Sandbur ([6]; 125 g ai/ha): 90
Plant response rating: Sandbur ([6]; 250 g ai/ha): 90
Plant response rating: Waterhemp ([7]; 31 g ai/ha): 90
Plant response rating: Waterhemp ([7]; 62 g ai/ha): 90
Plant response rating: Waterhemp ([7]; 125 g ai/ha): 95
Plant response rating: Waterhemp ([7]; 250 g ai/ha): 95
pest or weed control at 125 g/ha [8, 13]: 90%
pest or weed control at 500 g/ha ([8]; preemergence, 0 to 100 scale, 0 = no effect, 100 = complete control, read-out: Plant response rating, Foxtail, Giant): 90%
pest or weed control at 125 g/ha (Kochia (Kochia scoparia) [9]; [14]): 60%
pest or weed control at 500 g/ha (Kochia (Kochia scoparia) [9]; preemergence, 0 to 100 scale, 0 = no effect, 100 = complete control, read-out: Plant response rating, Kochia): 70%
pest or weed control at 125 g/ha [10, 15]: 90%
pest or weed control at 500 g/ha ([10]; preemergence, 0 to 100 scale, 0 = no effect, 100 = complete control, read-out: Plant response rating, Barnyardgrass): 90%
pest or weed control at 125 g/ha [11, 16]: 80%
pest or weed control at 500 g/ha ([11]; preemergence, 0 to 100 scale, 0 = no effect, 100 = complete control, read-out: Plant response rating, Ragweed): 80%
pest or weed control at 125 g/ha [12, 17]: 80%
pest or weed control at 500 g/ha ([12]; preemergence, 0 to 100 scale, 0 = no effect, 100 = complete control, read-out: Plant response rating, Ryegrass, Italian): 90%

CN1C[C@H](c2ccc(F)c(F)c2)[C@@H](C(=O)Nc2ccccc2F)C1=O [Compound 596, (3S,4S)-4-(3,4-difluorophenyl)-N-(2-fluorophenyl)-1-methyl-2-oxo-3-pyrrolidinecarboxamide]
Plant response rating: Lambsquarters ([1]; 31 g ai/ha): 25
Plant response rating: Lambsquarters ([1]; 62 g ai/ha): 25
Plant response rating: Lambsquarters ([1]; 125 g ai/ha): 80
Plant response rating: Lambsquarters ([1]; 250 g ai/ha): 90
Plant response rating: Kochia (Kochia (Kochia scoparia) [2]; 31 g ai/ha): 0
Plant response rating: Kochia (Kochia (Kochia scoparia) [2]; 62 g ai/ha): 25
Plant response rating: Kochia (Kochia (Kochia scoparia) [2]; 125 g ai/ha): 80
Plant response rating: Kochia (Kochia (Kochia scoparia) [2]; 250 g ai/ha): 90
Plant response rating: Johnsongrass ([3]; 31 g ai/ha): 0
Plant response rating: Johnsongrass ([3]; 62 g ai/ha): 0
Plant response rating: Johnsongrass ([3]; 125 g ai/ha): 0
Plant response rating: Johnsongrass ([3]; 250 g ai/ha): 35
Plant response rating: Soybean (soybean (Glycine max); 31 g ai/ha): 0
Plant response rating: Soybean (soybean (Glycine max); 62 g ai/ha): 0
Plant response rating: Soybean (soybean (Glycine max); 125 g ai/ha): 0
Plant response rating: Soybean (soybean (Glycine max); 250 g ai/ha): 0
Plant response rating: Field Bindweed ([4]; 31 g ai/ha): 0
Plant response rating: Field Bindweed ([4]; 62 g ai/ha): 0
Plant response rating: Field Bindweed ([4]; 125 g ai/ha): 0
Plant response rating: Field Bindweed ([4]; 250 g ai/ha): 15
Plant response rating: Barnyardgrass ([5]; 31 g ai/ha): 95
Plant response rating: Barnyardgrass ([5]; 62 g ai/ha): 98
Plant response rating: Barnyardgrass ([5]; 125 g ai/ha): 98
Plant response rating: Barnyardgrass ([5]; 250 g ai/ha): 98
Plant response rating: Sandbur ([6]; 31 g ai/ha): 85
Plant response rating: Sandbur ([6]; 62 g ai/ha): 90
Plant response rating: Sandbur ([6]; 125 g ai/ha): 90
Plant response rating: Sandbur ([6]; 250 g ai/ha): 95
Plant response rating: Waterhemp ([7]; 31 g ai/ha): 0
Plant response rating: Waterhemp ([7]; 62 g ai/ha): 0
Plant response rating: Waterhemp ([7]; 125 g ai/ha): 0
Plant response rating: Waterhemp ([7]; 250 g ai/ha): 50
pest or weed control at 125 g/ha [8, 13]: 100%
pest or weed control at 500 g/ha ([8]; Preemergence, visual injury approx. 10 d, read-out: Foxtail, Giant plant response rating (0 to 100 scale, 0 is no effect, 100 is complete control)): 100%
pest or weed control at 125 g/ha (Kochia (Kochia scoparia) [9]; [14]): 20%
pest or weed control at 500 g/ha (Kochia (Kochia scoparia) [9]; Preemergence, visual injury approx. 10 d, read-out: Kochia plant response rating (0 to 100 scale, 0 is no effect, 100 is complete control)): 70%
pest or weed control at 125 g/ha [10, 15]: 90%
pest or weed control at 500 g/ha ([10]; Preemergence, visual injury approx. 10 d, read-out: Barnyardgrass plant response rating (0 to 100 scale, 0 is no effect, 100 is complete control)): 100%
pest or weed control at 125 g/ha [11, 16]: 0%
pest or weed control at 500 g/ha ([11]; Preemergence, visual injury approx. 10 d, read-out: Ragweed plant response rating (0 to 100 scale, 0 is no effect, 100 is complete control)): 20%
pest or weed control at 125 g/ha [12, 17]: 40%
pest or weed control at 500 g/ha ([12]; Preemergence, visual injury approx. 10 d, read-out: Ryegrass, Italian plant response rating (0 to 100 scale, 0 is no effect, 100 is complete control)): 50%
